What all share (format): biochemical, Acremonium thermophilum
For test [1], the target named is T1, AtBG3.
T1 construct: secreted enzyme, heterologously expressed in Trichoderma reesei lacking four major cellulases; gel filtration; 101 kDa
As to the kind of experiment: inhibition of MUG hydrolysis, fluorescence. The note with it: 25 °C, pH 5.0, 2.5 μM MUG; IC50 at [S] << KM taken as Ki; competitive inhibition assumed; read-out: AtBG3^b. The text has this:
inhibition of MUG hydrolysis, fluorescence on AtBG3

Test [2] concerns T1, AtBG3. As to the kind of experiment: glucose release, hexokinase/G6PDH assay; fit with transglycosylation. The settings on record: 25 °C, pH 5.0, 50 mM sodium acetate; hydrolysis constant, substrate inhibition by transglycosylation; read-out: KM(h)(mM)^a / AtBG3.
Test [3] has as its system T1, AtBG3. Nature of the test: pNP release, absorbance […] nm; fit with transglycosylation. The note with it: 25 °C, pH 5.0, 50 mM sodium acetate; hydrolysis constant, substrate inhibition by transglycosylation; read-out: KM(h).

Regarding `OC[C@H]1OC(O)[C@H](O)[C@@H](O)[C@@H]1O` (stereo partly drawn) [glucose], the Ki at AtBG3 [1] is 220 µM.

For `OC[C@H]1O[C@@H](O[C@H]2[C@H](O)[C@@H](O)C(O)O[C@@H]2CO)[C@H](O)[C@@H](O)[C@@H]1O` (stereo partly drawn) [cellobiose], the Km in the test on AtBG3 [2] amounted to 0.29 ± 0.07 mM.

On to `O=[N+]([O-])c1ccc(O[C@@H]2O[C@H](CO)[C@@H](O)[C@H](O)[C@H]2O)cc1` [para-nitrophenyl-β-glucoside], for which, in the test on AtBG3 [3], the Km turned out to be 95 ± 3 µM.

(Values after article PMC3726394, “Selecting β-glucosidases to support cellulases in cellulose saccharification” (Biotechnology for Biofuels, 2013).)
